Measured values reported in patent publication US20220249522A1, “Hypoxia Targeting Compositions and Combinations Thereof with a PARP Inhibitor and Methods of Use Thereof” (The Board of Trustees of the Leland Stanford Junior …, priority 2018, published 2022).

What was measured:
[1] = test system: CAPAN-1 cell line; assay: Colony formation survival after 7 days PARP inhibitor in 21% or 2% oxygen; type: cell-based; settings: olaparib 0-1 μM or talazoparib 0-10 nM; for survival fraction versus correspondingly treated samples at 21% oxygen: 2% oxygen; for survival fraction: 21% oxygen
From the text: (§1) FIGS. 1A-1D show plots of survival fraction versus olaparib (AZD-2281) concentration for SUM149 (FIG. 1A), CAPAN-1 (FIG. 1B), HT1080 (FIG. 1C), and OVCAR8 (FIG. 1D) cell lines cultured in 21% oxygen or 2% oxygen conditions.
(§2) FIGS. 2A-2D show plots of survival fraction versus talazoparib (BMN 673) concentration for SUM149 (FIG. 2A), CAPAN-1 (FIG. 2B), HT1080 (FIG. 2C), and OVCAR8 (FIG. 2D) cell lines cultured in 21% oxygen or 2% oxygen conditions.
(§3) Specifically, a series of cell lines deficient for HR were treated with PARP inhibitors (olaparib or talazoparib (BMN 673)) for 7 days in 21% oxygen (representative of normoxic conditions) or 2% oxygen (representative of hypoxic conditions). In duplicates, 250-2000 cells of each cell line were seeded in 6-well plates and treated with varying concentrations of olaparib (0-1 μM) or talazoparib (0-10 nM). At the end of the treatment, media from each well was changed to drug-free media and cells were incubated to allow for formation of colonies. At the end of each incubation, colonies were fixed in 70% ethanol and stained with Crystal Violet to facilitate counting of colonies. At least 3 biological replicates were performed for each condition tested. The HR deficient cell lines treated were SUM149 (a BRAC1 mutant, triple negative breast cancer cell line), CAPAN-1 (a BRAC2 mutant, pancreatic cancer cell line), HT1080 (an IDH mutant, fibrosarcoma cell line), and OVCAR8 (a hypermethylated BRAC1 promoter, ovarian serous adenocarcinoma (high grade) cell line).

[2] = test system: HT1080 cell line; assay: as above; type: cell-based; settings: olaparib 0-1 μM or talazoparib 0-10 nM; for survival fraction versus correspondingly treated samples at 21% oxygen: 2% oxygen; for survival fraction: 21% oxygen
From the text: as §1, §2, §3

[3] = test system: SUM149 cell line; assay: as above; type: cell-based; settings: olaparib 0-1 μM or talazoparib 0-10 nM; for survival fraction versus correspondingly treated samples at 21% oxygen: 2% oxygen; for survival fraction: 21% oxygen
From the text: as §1, §2, §3

[4] = test system: OVCAR8 cell line; assay: Colony formation survival after 7 days PARP inhibitor in 21%, 5% or 2% oxygen; type: cell-based; settings: for survival in the presence of PARP inhibitor: olaparib 1 μM or talazoparib 10 nM; for survival fraction versus correspondingly treated samples at 21% oxygen: 2% oxygen; for survival fraction versus correspondingly treated samples at 21% oxygen / survival fraction: olaparib 0-1 μM or talazoparib 0-10 nM; for survival fraction: 21% oxygen
From the text: as §1, §2, §3
These observations were further evaluated using the OVCAR8 cell line samples at 21% oxygen, 5% oxygen, and 2% oxygen concentrations. Specifically, OVCAR8 cell line samples were cultured in 21% oxygen, 5% oxygen, or 2% oxygen conditions and were treated with a vehicle, olaparib (1 μM), or talazoparib (BMN 673; 10 nM) for 7 days. At the end of the treatment, media from each well was changed to a drug-free media and cells were incubated to allow for formation colonies.

[5] = test system: PARP enzyme activity in HT1080 cells; assay: Western blot analysis of PAR formation; type: cell-based; settings: olaparib 1 μM or talazoparib 10 nM, 7 days
Protocol: (§4) FIGS. 5A and 5B show western blot analyzes of the levels of poly(ADP-ribose) (PAR) in OVCAR8 cells (FIG. 5A) and HT1080 cells (FIG. 5B) following treatment with a vehicle, olaparib (AZD-2281; 1 μM), or talazoparib (BMN 673; 10 nM) cultured in 21% oxygen or 2% oxygen conditions.
(§5) Western blot analysis of PAR formation was conducted in OVCAR8 cells and HT1080 cells following treatment with a vehicle, olaparib (AZD-2281; 1 μM), or talazoparib (BMN 673; 10 nM) cultured in 21% oxygen or 2% oxygen conditions for 7 days. PAR levels in cell lysates were quantified using western blot.

[6] = test system: PARP enzyme activity in OVCAR8 cells; assay: Western blot analysis of PAR formation; type: cell-based; settings: olaparib 1 μM or talazoparib 10 nM, 7 days
Protocol: as §4, §5

[7] = test system: PARP enzyme activity in OVCAR8 xenografts; assay: PAR levels in tumor lysates of xenografts (western blot); type: in vivo; settings: olaparib 50 mg/kg daily intraperitoneal for 2 days
Protocol: OVCAR8 xenografts were established by subcutaneous injection of tumor cells in serum-free media/matrigel mix. Once tumors reached a size of about 100 mm^3, animals were divided into the following groups: (i) vehicle (10% 2-hydroxy-propyl-β-cyclodextrin/PBS) once a day via intraperitoneal injection (ii) olaparib (50 mg/kg) administered daily via intraperitoneal injection for 2 days. 3 animals were used per group.
Following completion of each treatment regimen, tumors were collected for analysis (FIG. 7A). PARP enzyme activity (measured via formation of PAR) was evaluated using western blot analysis.

[8] = test system: breast patient-derived tumor xenografts (PDTXs); assay: Olaparib efficacy in breast PDTX models in relation to hypoxia score; type: in vivo; settings: archived PDTX data of Bruna et al; hypoxia signature of Buffa et al
From the text: FIGS. 7A-7D show a schematic of diagram of olaparib treatment in OVCAR8 xenografts (FIG. 7A), a Western blot analysis of PAR levels in tumor lysates (FIG. 7B), immunohistochemical staining of vehicle- and olaparib-treated tumors (FIG. 7C), and sensitivity to olaparib inversely correlates with hypoxia in Breast PDX models (FIG. 7D).
Efficacy of olaparib in a range of patient-derived tumor xenografts (PDTXs) were previously tested in vivo by Bruna et al and the results archived in a biobank (http://caldaslab.cruk.cam.ac.uk/bcape) (see Bruna et al. Cell 167, 260-274 (2016), the disclosure of which is incorporated herein by reference). The efficacy of olaparib in these breast PDTX models in relation to their hypoxia levels was analyzed. […] (Buffa et al. Br J Cancer 102, 428-35 (2010), the disclosure of which is incorporated herein by reference). This is in accordance with the data from in vitro studies.

[9] = test system: OVCAR8 cells; assay: Tirapazamine x PARPi dose matrix, survival and synergy analysis (Combenefit); type: cell-based; settings: for tirapazamine doses required to achieve a synergy score of 30-40: with 10 nM BMN673; for tirapazamine dose required for a synergy score of 20-30: with 0.1 μM olaparib
Protocol: FIGS. 8A and 8B show survival percentage of OVCAR8 cells treated with olaparib (0.001-10 μM) and TPZ (0.1-50 μM) or BMN673 (0.01-20 nM) and TPZ (0.1-50 μM) (FIG. 8A), and HSA synergism analysis of OVCAR8 cells treated with varying doses of TPZ and olaparib or TPZ and BMN673 (FIG. 8B).
(§6) The effect of combining a hypoxia activated prodrug with PARPi on cellular toxicity was assessed. […] Combenefit; a validated, open-access software program was used to analyze the data and quantify possible synergistic or antagonistic drug interactions, and relative cell kill data are presented as survival curves (FIG. 8A& 9A), while synergy scores are presented in matrix format (FIG. 8B& 9B). […] Examples are highlighted with the red squares in the matrix plots. In OVCAR8 cells for example, tirapazamine doses required to achieve a synergy score of 30-40 when cells are treated with 10 nM BMN673 are 0.5-1 μM in hypoxia and 5-10 μM in normoxia.

[10] = test system: SUM149 cells; assay: as above; type: cell-based; settings: combination with PARPi (olaparib and BMN673)
Protocol: FIGS. 9A and 9B show survival percentage of SUM149 cells treated with olaparib (0.001-10 μM) and TPZ (0.1-50 μM) or BMN673 (0.01-20 nM) and TPZ (0.1-50 μM) (FIG. 9A), and HSA synergism analysis of SUM149 cells treated with varying doses of TPZ and olaparib or TPZ and BMN673 (FIG. 9B).
as §6

[11] = test system: OVCAR8 cells; assay: Survival fraction after 96 hours tirapazamine, PARP inhibitor or combination; type: cell-based; settings: tirapazamine alone 0.1 μM or 1 μM, 21% or 2% oxygen
Protocol: FIGS. 10A-10C show histograms of survival fractions of OVCAR8 cells treated with a vehicle, tirapazamine, olaparib, olaparib plus tirapazamine, talazoparib, or talazoparib plus tirapazamine.
(§7) The in vitro efficacy of single agent tirapazamine or a single agent PARP inhibitor (olaparib or talazoparib) or combinations of tirapazamine and a PARP inhibitor (olaparib or talazoparib) was assessed in HR deficient cell lines (OVCAR8 and SUM149) at 21% oxygen and 2% oxygen concentrations. Specifically, OVCAR8 cells were seeded and treated with one of the following for 96 hours in 21% oxygen or 2% oxygen concentrations: (i) vehicle; (ii) tirapazamine (TPZ; 0.1 μM or 1 μM); (iii) olaparib (OL; 1 μM); (iv) tirapazamine (at concentrations above) plus olaparib (1 μM); (v) talazoparib (BMN; 10 nM); or tirapazamine (at concentrations above) plus talazoparib (10 nM). […] At the end of the treatment, media from each sample was changed to a drug-free media and cells were incubated to allow for formation colonies before survival fraction was determined.

[12] = test system: SUM149 cells; assay: as above; type: cell-based; settings: tirapazamine alone 0.1 μM or 1 μM, 21% or 2% oxygen
Protocol: FIGS. 11A-11C show histograms of survival fractions of SUM149 cells treated with a vehicle, tirapazamine, olaparib, olaparib plus tirapazamine, talazoparib, or talazoparib plus tirapazamine.
as §7

[13] = test system: non-small cell lung cancer and head and neck cancer; settings: background statement; cited from earlier work
[14] = 2% oxygen compared to 5% oxygen
[15] = 2% oxygen compared to 21% oxygen
[16] = 5% oxygen compared to 21% oxygen

Row | Compound | survival fraction versus correspondingly treated samples at 21% oxygen [1] | survival fraction [1] | survival fraction versus correspondingly treated samples at 21% oxygen [2] | survival fraction [2] | survival fraction versus correspondingly treated samples at 21% oxygen [3] | survival fraction [3] | survival in the presence of PARP inhibitor [4, 14] | survival in the presence of PARP inhibitor [4, 15] | survival fraction versus correspondingly treated samples at 21% oxygen [4] | survival in the presence of PARP inhibitor [4, 16] | survival fraction [4] | PAR formation ([5]; 2% oxygen) | PAR formation ([5]; 21% oxygen) | PAR formation ([6]; 2% oxygen) | PAR formation ([6]; 21% oxygen) | also measured
1 | Cn1ncnc1[C@H]1c2n[nH]c(=O)c3cc(F)cc(c23)N[C@@H]1c1ccc(F)cc1 [talazoparib] | higher survival fractions | reduced | higher survival fractions | reduced | higher survival fractions | reduced | significantly improved survival | significantly improved survival | higher survival fractions | significantly improved survival | reduced | reduced PAR formation | reduced PAR formation | reduced PAR formation | reduced PAR formation | –
2 | O=C(c1cc(Cc2n[nH]c(=O)c3ccccc23)ccc1F)N1CCN(C(=O)C2CC2)CC1 [olaparib] | higher survival fractions | reduced | higher survival fractions | reduced | higher survival fractions | reduced | significantly improved survival | significantly improved survival | higher survival fractions | significantly improved survival | reduced | reduced PAR formation | reduced PAR formation | reduced PAR formation | reduced PAR formation | PAR formation in xenograft samples [7]: no evidence of PAR formation; correlation between hypoxia score of the tumors and their sensitivity to olaparib therapy [8]: strong inverse correlation
3 | Nc1n[n+]([O-])c2ccccc2[n+]1[O-] [tirapazamine, 3-amino-1,2,4-benzotriazine-1,4-dioxide] | – | – | – | – | – | – | – | – | – | – | – | – | – | – | – | fold lower doses of tirapazamine required under hypoxic conditions to achieve similar or even higher synergy scores to normoxic conditions ([9]; combination with PARPi (olaparib and BMN673)): 10 fold; tirapazamine doses required to achieve a synergy score of 30-40 ([9]; hypoxia): 0.5 to 1 µM; tirapazamine doses required to achieve a synergy score of 30-40 ([9]; normoxia): 5 to 10 µM; tirapazamine dose required for a synergy score of 20-30 ([9]; hypoxia): 1 µM; tirapazamine dose required for a synergy score of 20-30 ([9]; normoxia): 10 µM; fold lower doses of tirapazamine required under hypoxic conditions to achieve similar or even higher synergy scores to normoxic conditions [10]: 10 fold; cell survival fraction as compared to the vehicle [11]: did not have a significant effect; cell survival fraction as compared to the vehicle [12]: did not have a significant effect; efficacy in clinical trials [13]: lack of efficacy
